# Data from EP4702979A1, “USE OF COMPOUND IN PREVENTION OR TREATMENT OF RADIATION-INDUCED BRAIN INJURY” (Guangzhou Cellprotek Pharmaceutical Co., Ltd, priority 2023, dated 2024).
# Where two headings read alike, the source gives them in different places.
# What was measured:
# [1] = test system: CC1 positive oligodendrocytes; settings: 60mg/kg/d YC-6 for 8 weeks; thalamus of the lesion, 8 weeks after gamma knife radiation; Mean±SEM, n=5; normal 1608.00±47.92, model 200.60±21.47; P<0.0001 vs model
# Text: (§1) Table 1. Animal grouping and treatment methods
# (§2) The model constructing method for focal radiation-induced brain injury caused by gamma ray radiation was modified based on reported literature. After anesthesia of mouse by intraperitoneal injection of 0.1% pentobarbital sodium solution, the body was fixed on a customized platform, and the mouse skull was scanned by X-ray computed tomography scanner for imaging processing (radiation energy of 80kV, imaging range of 250mm, layer thickness and interlayer spacing of 0.625mm, pixel size of 0.49*0.49mm). The animal irradiation position and gamma knife irradiation depth were determined based on the scanning imaging results. The mouse and customized platform were placed in a stereotactic gamma ray irradiation system for irradiation, with the irradiation site in the left thalamus of the mouse. The coordinates of the irradiation center positioning point were: 2mm behind the anterior fontanelle (AP), 2mm left of the midline (L), and 2mm below the skull dura mater (dorsal ventral DV).
# MAG = settings: 60mg/kg/d YC-6 for 8 weeks; thalamus of the lesion, 8 weeks after gamma knife radiation; Mean±SEM, n=5; normal 1.04±0.047, model 0.31±0.018; P<0.0001 vs model
# Text: as §1, §2
# GFAP positive astrocytes = settings: 60mg/kg/d YC-6 for 8 weeks; thalamus of the lesion, 8 weeks after gamma knife radiation; Mean±SEM, n=5; normal 57.80 ± 2.69, model 558.20 ± 10.07; P<0.0001 vs model
# Text: as §1, §2
# [2] = test system: gamma knife irradiation induced focal radiation-induced brain injury; settings: MRI 8 weeks after 50 Gy gamma ray radiation, Mean±SEM, n=5, RBI+Saline model 15.28 ± 0.98, P<0.05 vs model
# Text: as §1, §2
# [3] = Animal weighing in radiation-induced brain injury model; assay type: in vivo, C57BL/6 mice; settings: full 8-week YC-6 administration, 60mg/kg/d; weighed once a week
# Procedure: as §1
# Weighing was performed once a week before and after the gamma ray radiation model construction for 8 weeks.
smiles,measurement,setting,value
"C[C@@]12CCCC1C1C[C@@H](O)[C@@]3(O)C[C@@H](O)CC[C@]3(C)C1CC2 (stereo partly drawn) [YC-6, 5α-androst-3β,5,6β-triol]",Number of mature oligodendrocytes,[1],506.40±30.48 Oligodendrocytes/mm^2
same,MAG fluorescence signal intensity,MAG,0.44±0.018
same,Number of astrocytes,GFAP positive astrocytes,357.00 ± 10.61 Astrocytes/mm^2
same,Volume of lesion,"[2]; 60mg/kg/d YC-6 for 2 weeks, then stopped for 6 weeks",12.28 ± 0.63^# mm^3
same,Volume of lesion,[2]; 60mg/kg/d YC-6 for 8 weeks,10.27 ± 1.50^# mm^3
same,body weight,[3],without affecting body weight
